Measured values as given in patent US20250249025A1, “DRUG DELIVERY CARRIER UTILIZING PROPERTY OF D-ALLOSE BEING UPTAKEN BY CANCER CELL, DRUG DELIVERY METHOD, AND COMPOSITION FOR TREATING RENAL CELL CARCINOMA” (NATIONAL UNIVERSITY CORPORATION KAGAWA UNIVERSITY, priority 2019, published 2025).

Tests used:
ACHN tumor = test: D-allose concentration in tumor after intraperitoneal injection, ACHN xenograft mouse model; format: in vivo; settings: ACHN xenograft mice, 400 mg/kg intraperitoneal
Procedure: (§1) The experiment of the present example used two human renal cell carcinoma cell lines (Caki-I and ACHN). Each cell was cultured under the wet environment of 37° C. and 5% CO2 by using a RPMI-1640 culture solution (2000 mg D-glucose/L) containing a 10% fetal calf serum, a HEPES buffer, and penicillin-streptomycin.
(§2) With respect to a renal cell carcinoma xenograft mouse model, a 1.0×10^5 cells/ml of a cell suspension was obtained by adjusting the cultured cells with a MEM culture solution and then 0.1 ml of the resulting suspension was injected into the femoral subcutaneous tissue of Female athymic nude mice (BALB/c-nu/nu, 6-week-old). After checking that the tumor volume was 200 mm^3 or more one week after the injection, the mice were provided for the experiment thereafter.
A 400 mg/kg/0.4 mL solution of rare sugar D-allose was prepared using physiological saline and was intraperitoneally injected into the xenograft mouse models of two human renal cell carcinoma cell lines (Caki-I and ACHN) through a 27 G needle. A tumor was enucleated from the mouse before […] administration and 1 hour, 2 hours, and 4 hours after the administration. […] A monosaccharide in the supernatant thus obtained was labeled with ABEE (4-aminobenzoic acid ethyl ester) and the quantitative analysis of D-allose was performed by HPLC (high performance liquid chromatography). […]

[1] = test system: human bladder carcinoma cell line RT112; test: Rare sugar uptake experiment, sugar content in disrupted cell suspension of RT112; format: cell-based
Procedure: An uptake amount of a rare sugar, which had been added to a medium, into carcinoma cells was analyzed using the cell lines of three types of cancers. As the rare sugar, four kinds, that is, D-allose, D-allulose (D-psicose), L-allulose (L-psicose), and allitol were used, while D-glucose and fructose were used as a monosaccharide which was not a rare sugar.
Cells of each of the cell lines were cultured in RPMI-1640 media and during culturing, six sugars were each added to the resulting media and cultured. After culturing, an amount of each sugar taken up into the cells was analyzed. The medium to which no sugar was added during culturing was used as a control.
Used were human bladder carcinoma cell lines (RT112, 253), and J82), human prostatic carcinoma cell lines (LNCa, Du145, and PC-3), and human renal cell carcinoma cell lines (ACHN, Caki-I, and Caki-II).
After cells were cultured in RPMI-1640 (2000 mg D-glucose/L) media, the above monosaccharides and rare sugars were added to the resulting media, respectively. Described specifically, they were following seven combinations: RPMI-1640 alone (control), RPMI-1640+D-glucose, RPMI-1640+L-allulose, RPMI-1640+D-allulose, RPMI-1640+D-fructose, RPMI-1640+D-allose, and RPMI-1640+D-allitol. The final concentration of the sugar in the medium was adjusted to 10 mM and no sugar was added in the control.
Five-ml portions of a 3.0×10^4 cells/ml cell suspension prepared using RPMI-1640 were seeded in dishes having a diameter of 6 cm (1.5×10^5 cells/dish) and cultured for 24 hours in the RPMI-1640 medium containing 2000 mg/l of D-glucose as a nutrient source. Twenty-four hours later, the media were changed to the culture solutions containing the monosaccharides and rare sugars described above in 2), respectively, followed by culturing for 48 hours.
After culturing for 48 hours, the attached human carcinoma cells were mechanically separated and collected in a Spitz tube together with the culture solution and floating cells. After the supernatant formed by centrifugation (4° C., 1200 rpm, and 5 minutes) was removed to obtain cell pellets alone, 5 ml of a phosphate buffer physiological saline (PBS) was added for the purpose of washing to obtain a cell suspension of the cell pellets. A gain, the resulting cell suspension was centrifuged at 4° C. and 1200 rpm for 5 minutes and the supernatant was removed. To the cell pellets after washing was added 1 ml of pure water to suspend them therein. Ultrasonic disruption (intensity: 40%, 30 seconds) was then performed and the monosaccharide in the disrupted cell suspension was labeled with ABEE, followed by analysis by HPLC. From the area thus obtained, the sugar content in the cells was determined using a calibration curve. With respect to the ketose, two peaks were found after labeling with ABEE so that the sugar content in the cells was determined from the calibration curves of both peaks.

[2] = Body weight in renal cell carcinoma xenograft mouse models; format: in vivo, mice; settings: Control, 100 mg/kg and 400 mg/kg intraperitoneal once a day for 5 weeks; Mann-Whitney U test; FIG. 6
Procedure: (§3) The day when the tumor size of the renal cell carcinoma xenograft mouse models became 200 mm^3 or more was called day 0 and the intraperitoneal injection of a D-allose-containing solution was started from day 1. The solution injected is 0.4 mL of physiological saline or a solution obtained by dissolving 100 mg/kg or 400 mg/kg of D-allose in 0.4 mL physiological saline. The resulting solution was intraperitoneally injected into three groups of mice (Control, 100 mg/kg of D-allose, and 400 mg/kg of D-allose) once a day for 5 weeks in total. The body weight of the mice and the long and short diameters of the tumor were measured over time twice a week. It is to be noted that the tumor volume was obtained as a product of long diameter×short diameter×short diameter of the tumor×0.5. On day 35 after the intraperitoneal injection was started, the tumor as well as the liver and kidney were excised from the mice and provided for the experiment performed thereafter.

[3] = test system: xenograft mouse model made using Caki-I; test: Change of tumor volume by intraperitoneal D-allose injection, Caki-I xenograft mouse model; format: in vivo, mice
Procedure: as §1, §2, §3

ACHN tumor tissue = test: Tumor tissue histology (necrosis area, nuclear fission), ACHN xenograft mouse model; format: in vivo, mice; settings: day 35
Procedure: as §1, §2, §3
The tissue of the excised tumor, kidney, and liver was fixed with a 4% paraformaldehyde phosphate buffer, embedded with paraffin, and sliced into a 4-μm thick section. The resulting sliced section was stained with hematoxylin and eosin and evaluated by a medical specialist in pathology. The influence of D-allose on the tumor tissue was evaluated by a necrosis area (%) and an image of the number of nuclear fissions (Cells/HPF). It is to be noted that the necrosis area was measured using an image recording software Nikon NIS—Elements D and figures after the decimal point were omitted. On the other hand, the number of nuclear fissions was obtained as an average of those of three fields of view and figures after the decimal point were also omitted. The anti-tumor effect of D-allose, more specifically, necrosis area and the number of nuclear fissions in the renal cell carcinoma xenograft mouse model are shown in Table 10.

[4] = 100 mg/kg intraperitoneal once a day
[5] = 400 mg/kg intraperitoneal once a day

## O=C[C@H](O)[C@H](O)[C@H](O)[C@H](O)CO [D-allose]
ACHN tumor; HPLC, FIG. 4
  D-allose in tumor one hour after intraperitoneal injection: detected
ACHN tumor; sampled 1, 2, 4 hours
  Time after injection at which D-allose concentration in tumor became the highest: two
[1]; RT112, named sugar added to RPMI-1640 at 10 mM, 48 hours, HPLC after ABEE labeling
  D-glucose content in cell: 9.7 µg
[1]; human, 48 h, 10 mM
  Content in cell of the added sugar: 0.0 µg
[2]
  Mice weight, difference among three groups: No significant difference
[3]; 100 mg/kg intraperitoneal once a day, on and after day 31, Mann-Whitney U test
  Tumor volume versus Control group: significantly smaller than that of the Control group
[3]; 400 mg/kg intraperitoneal once a day, on and after day 16
  Tumor volume versus tumor volume before administration: significantly smaller than the tumor volume before administration
[3]; 400 mg/kg intraperitoneal once a day, on and after day 16, Mann-Whitney U test
  Tumor volume versus Control group: significantly smaller than that of the Control group
ACHN tumor tissue; [4]
  Necrosis area: 49%
  Nuclear fission: 1.2 Cells/HPF
ACHN tumor tissue; [5]
  Necrosis area: 69%
  Nuclear fission: 0.9 Cells/HPF
